Assay results taken from patent publication US20140256666A1, “ANTIBIOTIC CONJUGATES WITH NONSTEROIDAL ANTI-INFLAMMATORY DRUGS” (Allergan, Inc., priority 2013, published 2014).

Tested on: Human Corneal Epithelial Cells
Assay: In vitro corneal permeability, cellular uptake and metabolic stability in human corneal epithelial cells
Type: in vitro ADME
Conditions: two hour incubation with Human Corneal Epithelial Cells, 50 μM final concentration
Procedure: Clonetics® human corneal epithelial cells (HCEC) were purchased from Lonza Walkersville, Inc. (Walkersville, Md.) pre-seeded on Costar Transwell™ filters in a 24-well plate. Upon receipt HCEC cells were cultured overnight in a 37° C. incubator ([…], 5% CO2) in media provided by the vendor. Permeability studies were performed within 24 hours of receipt. Dosing solutions 100 μM test article (i.e. ester linked hybrids) were prepared in Lonza's proprietary media by diluting a 50 mM stock solution of the test article in dimethyl sulfoxide. The final percentage of solvent in the incubation was less than 1.0% to prevent inhibition of enzymatic activity or effects on the cell membrane. Transepithelial electrical resistance (TEER) was measured for all wells using a voltohmmeter with STX-2 electrodes (World Precision Instruments Inc., Sarasota, Fla.) after adding 100 μL pre-warmed (37° C.) media to the apical compartment. […] A final TEER value was measured and recorded for all wells.
To evaluate human corneal epithelial cell integrity incubations were conducted using 2 μCi/mL ^3H-mannitol for the same 2 hour incubation period with aliquots taken from the basolateral compartment. ^3H-Mannitol samples were analyzed using liquid scintillation counting. […]

Compound: COc1c(N2CCN(C(=O)OCOC(=O)C(C)c3ccc(-c4ccccc4)c(F)c3)C(C)C2)c(F)cc2c(=O)c(C(=O)O)cn(C3CC3)c12 (stereo not shown) [Compound 16, 1-cyclopropyl-6-fluoro-7-{4-[({[2-(2-fluorobiphenyl-4-yl)propanoyl]oxy}methoxy)carbonyl]-3-methylpiperazin-1-yl}-8-methoxy-4-oxo-1,4-dihydroquinoline-3-carboxylic acid]
- cellular uptake of hybrid (parent) and hydrolyzed metabolites (FIG. 1): penetrates into human corneal epithelial cells and is enzymatically hydrolyzed to the individual antibiotic and NSAID
